Reference: BindingDB's records for patent US9796704 (SYMPHONY EVOLUTION, INC., 2017)

Key:
[1] = target: Vascular endothelial growth factor receptor 2 (Homo sapiens, UniProt P35968); test: AlphaScreen Assay
[2] = target: Ephrin type-A receptor 2 (Homo sapiens, UniProt P29317); test: AlphaScreen Assay
Sequence of Ephrin type-A receptor 2 (P29317 whole entry): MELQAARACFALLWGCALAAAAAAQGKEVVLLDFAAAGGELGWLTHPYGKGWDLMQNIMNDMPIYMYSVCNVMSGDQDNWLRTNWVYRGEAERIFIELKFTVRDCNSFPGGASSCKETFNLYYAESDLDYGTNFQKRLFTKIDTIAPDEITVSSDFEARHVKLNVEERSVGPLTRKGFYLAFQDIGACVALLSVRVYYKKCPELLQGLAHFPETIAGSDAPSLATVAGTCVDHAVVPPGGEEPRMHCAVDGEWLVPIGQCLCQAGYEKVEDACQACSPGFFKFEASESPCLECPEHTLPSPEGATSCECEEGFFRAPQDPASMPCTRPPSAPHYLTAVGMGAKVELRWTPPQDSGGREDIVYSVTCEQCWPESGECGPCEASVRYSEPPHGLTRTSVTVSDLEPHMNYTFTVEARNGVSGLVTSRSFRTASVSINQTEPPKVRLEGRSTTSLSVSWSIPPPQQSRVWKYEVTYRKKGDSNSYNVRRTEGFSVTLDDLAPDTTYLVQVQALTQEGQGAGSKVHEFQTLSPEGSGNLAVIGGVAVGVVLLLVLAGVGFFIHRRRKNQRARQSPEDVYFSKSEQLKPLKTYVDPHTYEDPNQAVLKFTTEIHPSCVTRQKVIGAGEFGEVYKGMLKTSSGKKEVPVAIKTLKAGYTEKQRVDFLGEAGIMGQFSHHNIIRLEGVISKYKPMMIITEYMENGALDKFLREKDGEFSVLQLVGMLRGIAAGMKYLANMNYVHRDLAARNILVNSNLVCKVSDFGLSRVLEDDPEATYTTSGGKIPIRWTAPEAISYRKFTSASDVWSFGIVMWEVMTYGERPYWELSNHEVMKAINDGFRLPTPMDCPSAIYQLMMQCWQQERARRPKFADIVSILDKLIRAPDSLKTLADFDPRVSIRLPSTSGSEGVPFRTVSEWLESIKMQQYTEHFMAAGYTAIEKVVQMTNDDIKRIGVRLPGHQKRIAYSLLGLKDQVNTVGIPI

Sequence of Vascular endothelial growth factor receptor 2 (P35968 whole entry): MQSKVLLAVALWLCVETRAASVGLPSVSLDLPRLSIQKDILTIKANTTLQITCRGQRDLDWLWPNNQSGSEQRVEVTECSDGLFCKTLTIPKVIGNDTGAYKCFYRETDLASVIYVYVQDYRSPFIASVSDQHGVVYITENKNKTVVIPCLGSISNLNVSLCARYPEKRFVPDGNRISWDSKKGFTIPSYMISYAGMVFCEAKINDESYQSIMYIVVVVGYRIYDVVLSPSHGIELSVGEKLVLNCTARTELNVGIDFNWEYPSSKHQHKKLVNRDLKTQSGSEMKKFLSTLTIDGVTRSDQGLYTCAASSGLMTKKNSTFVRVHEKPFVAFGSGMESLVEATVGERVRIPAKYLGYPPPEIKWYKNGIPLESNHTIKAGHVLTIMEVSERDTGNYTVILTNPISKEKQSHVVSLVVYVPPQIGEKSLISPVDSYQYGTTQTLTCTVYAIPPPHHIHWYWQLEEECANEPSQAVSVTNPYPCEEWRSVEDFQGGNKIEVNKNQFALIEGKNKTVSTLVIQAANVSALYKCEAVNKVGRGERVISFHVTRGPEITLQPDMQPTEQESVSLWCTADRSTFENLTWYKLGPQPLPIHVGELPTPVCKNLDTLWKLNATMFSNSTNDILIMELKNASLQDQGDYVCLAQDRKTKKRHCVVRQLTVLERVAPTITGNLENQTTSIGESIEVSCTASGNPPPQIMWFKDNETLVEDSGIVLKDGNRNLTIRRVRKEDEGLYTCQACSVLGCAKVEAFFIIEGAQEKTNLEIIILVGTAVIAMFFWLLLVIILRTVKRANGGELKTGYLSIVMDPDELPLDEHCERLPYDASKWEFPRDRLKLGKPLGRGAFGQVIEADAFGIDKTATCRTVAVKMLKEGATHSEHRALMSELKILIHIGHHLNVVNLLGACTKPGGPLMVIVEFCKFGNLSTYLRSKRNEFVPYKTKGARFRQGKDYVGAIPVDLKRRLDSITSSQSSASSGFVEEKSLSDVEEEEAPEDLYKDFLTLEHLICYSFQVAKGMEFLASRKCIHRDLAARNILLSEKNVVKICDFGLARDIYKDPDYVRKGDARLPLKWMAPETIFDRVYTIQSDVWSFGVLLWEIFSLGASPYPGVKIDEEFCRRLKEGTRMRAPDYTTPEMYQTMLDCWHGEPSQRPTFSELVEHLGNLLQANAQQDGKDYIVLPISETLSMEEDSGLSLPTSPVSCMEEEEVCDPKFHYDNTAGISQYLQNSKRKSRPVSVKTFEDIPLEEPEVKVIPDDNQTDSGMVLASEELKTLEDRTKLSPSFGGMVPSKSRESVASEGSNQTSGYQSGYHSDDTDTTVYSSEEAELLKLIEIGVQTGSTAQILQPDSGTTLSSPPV

Row | IC50 [1] | IC50 [2] | SMILES
1 | < 50 nM |  | COc1cc2c(Nc3cc(Cl)c(Br)cc3F)ncnc2cc1OC[C@H]1CN2CCOCC2CO1 (some centres not stated) [US9796704, Entry 20]
2 |  | in the range around 525 nM | COc1cc2c(Nc3ccc(Br)c(Cl)c3Cl)ncnc2cc1OC[C@@H]1CN2CCC[C@H]2CO1 [US9796704, Entry 39]
3 | in the range around 10500 nM |  | COc1cc2c(Nc3cc(Cl)c(Cl)cc3F)ncnc2cc1OC[C@@H]1CO[C@H]2[C@@H]1OC[C@@H]2OC [US9796704, Entry 48]
4 | in the range around 525 nM |  | COc1cc2c(Nc3cccc(Cl)c3F)ncnc2cc1O[C@H]1CO[C@H]2[C@@H]1OC[C@@H]2OC [US9796704, Entry 71]
5 | in the range around 525 nM |  | CCO[C@H]1CO[C@H]2[C@@H]1OC[C@@H]2Oc1cc2ncnc(Nc3ccc(Br)c(Cl)c3)c2cc1OC [US9796704, Entry 74]
6 | in the range around 525 nM |  | COc1cc2c(Nc3cccc(Br)c3C)ncnc2cc1O[C@H]1CO[C@H]2[C@@H]1OC[C@@H]2OC [US9796704, Entry 75]
7 | in the range around 525 nM |  | COc1cc2c(Nc3cccc(Cl)c3C)ncnc2cc1O[C@H]1CO[C@H]2[C@@H]1OC[C@@H]2OC [US9796704, Entry 76]
8 | in the range around 525 nM |  | COc1cc2c(Nc3ccc(Br)c(Cl)c3)ncnc2cc1O[C@H]1CO[C@@H]2CCO[C@H]12 [US9796704, Entry 77]
9 | in the range around 525 nM | in the range around 525 nM | COc1cc2c(Nc3ccc(Br)c(Cl)c3)ncnc2cc1O[C@H]1CO[C@@H]2C3OC(C)(C)O[C@H]3O[C@H]12 (some centres not stated) [US9796704, Entry 80]
10 | in the range around 525 nM | in the range around 525 nM | COc1cc2c(Nc3ccc(F)c(F)c3F)ncnc2cc1O[C@@H]1CO[C@@H]2[C@H]1OC[C@H]2F [US9796704, Entry 84]
11 | in the range around 525 nM | in the range around 525 nM | COc1cc2c(Nc3cccc(F)c3F)ncnc2cc1O[C@@H]1CO[C@@H]2[C@H]1OC[C@H]2F [US9796704, Entry 92]
12 | in the range around 525 nM | in the range around 525 nM | COc1cc2c(Nc3ccc(Br)c(Cl)c3Cl)ncnc2cc1O[C@@H]1CO[C@@H]2[C@H]1OC[C@H]2F [US9796704, Entry 103]
13 |  | in the range around 525 nM | COc1cc2c(Nc3cc(F)c(Br)c(Cl)c3)ncnc2cc1O[C@@H]1CO[C@@H]2[C@H]1OC[C@H]2F [US9796704, Entry 104]
14 | in the range around 525 nM | in the range around 525 nM | COc1cc2c(Nc3cc(Cl)c(Cl)cc3F)ncnc2cc1O[C@@H]1CO[C@@H]2[C@H]1OC[C@H]2F [US9796704, Entry 105]
15 | in the range around 10500 nM | in the range around 525 nM | COc1cc2c(Nc3cccc(Cl)c3)ncnc2cc1O[C@@H]1CO[C@@H]2[C@H]1OC[C@H]2F [US9796704, Entry 114]
16 | in the range around 10500 nM |  | COc1cc2c(Nc3ccc(F)cc3)ncnc2cc1O[C@@H]1CO[C@@H]2[C@H]1OC[C@H]2F [US9796704, Entry 115]
17 | in the range around 525 nM |  | COc1cc2c(Nc3cc(Cl)ccc3Cl)ncnc2cc1O[C@@H]1CO[C@@H]2[C@H]1OC[C@H]2F [US9796704, Entry 118]
18 | in the range around 525 nM | in the range around 525 nM | COc1cc2c(Nc3cccc(Br)c3)ncnc2cc1O[C@@H]1CO[C@@H]2[C@H]1OC[C@H]2F [US9796704, Entry 129]
19 | in the range around 525 nM | in the range around 525 nM | COc1cc(OC)c(Nc2ncnc3cc(O[C@@H]4CO[C@@H]5[C@H]4OC[C@H]5F)c(OC)cc23)cc1Cl [US9796704, Entry 135]

Row | IC50 [1] | IC50 [2] | SMILES
20 | in the range around 525 nM | in the range around 525 nM | COc1cc2c(Nc3ccc(F)c(Cl)c3F)ncnc2cc1O[C@@H]1CO[C@@H]2[C@H]1OC[C@H]2F [US9796704, Entry 137]
21 |  | in the range around 525 nM | COc1cc2c(Nc3ccc(Cl)c(Cl)c3)ncnc2cc1OCc1noc(CN(C)C)n1 [US9796704, Entry 138]
22 | in the range around 525 nM | in the range around 525 nM | COc1cc2c(Nc3ccc(Cl)c(Cl)c3)ncnc2cc1OCc1nc(CN(C)C)no1 [US9796704, Entry 139]
23 |  | in the range around 525 nM | COc1cc2c(Nc3ccc(Cl)c(Cl)c3)ncnc2cc1OCc1nc(CN2CCN(C)CC2)no1 [US9796704, Entry 140]
24 | in the range around 525 nM | in the range around 525 nM | COc1cc2c(Nc3ccc(Cl)c(Cl)c3)ncnc2cc1OCc1noc(C2CCNCC2)n1 [US9796704, Entry 141]
25 | in the range around 525 nM | in the range around 525 nM | COc1cc2c(Nc3ccc(Cl)c(Cl)c3)ncnc2cc1OCc1noc(C2CCN(C)CC2)n1 [US9796704, Entry 142]
26 | in the range around 525 nM | in the range around 525 nM | COc1cc2c(Nc3ccc(Cl)c(Cl)c3)ncnc2cc1OCc1nc(CN2CCOCC2)no1 [US9796704, Entry 143]
27 | in the range around 525 nM | in the range around 10500 nM | COc1cc2c(Nc3ccc(Cl)c(Cl)c3)ncnc2cc1OCc1noc(C2CCCCN2)n1 (configuration not stated) [US9796704, Entry 145]
28 | in the range around 525 nM |  | COc1cc2c(Nc3ccc(Cl)c(Cl)c3)ncnc2cc1OCC1CN(C)CCO1 (configuration not stated) [US9796704, Entry 151]
29 |  | in the range around 525 nM | COc1cc2c(Nc3ccc(Cl)c(Cl)c3)ncnc2cc1OCC1CN(C)CCCO1 (configuration not stated) [US9796704, Entry 155]
30 |  | in the range around 525 nM | COc1cc2c(Nc3ccc(Cl)c(Cl)c3)ncnc2cc1OCc1noc(C)c1-c1ccccc1 [US9796704, Entry 161]
31 | in the range around 525 nM |  | COc1cc2c(Nc3ccc(Cl)c(Cl)c3)ncnc2cc1OCc1noc(-c2ccc(C(F)(F)F)cc2)n1 [US9796704, Entry 167]
32 | in the range around 525 nM |  | COc1cc2c(Nc3ccc(Cl)c(Cl)c3)ncnc2cc1OCc1cscn1 [US9796704, Entry 170]
33 | in the range around 525 nM |  | COc1cc2c(Nc3ccc(Cl)c(Cl)c3)ncnc2cc1OCC1CC1 [US9796704, Entry 182]
34 | in the range around 525 nM |  | COc1cc2c(Nc3ccc(Cl)c(Cl)c3)ncnc2cc1OCC1CCCO1 (configuration not stated) [US9796704, Entry 183]
35 | in the range around 525 nM |  | COc1cc2c(Nc3ccc(Cl)c(Cl)c3)ncnc2cc1OC1CCCC1 [US9796704, Entry 184]
36 | in the range around 525 nM |  | COc1cc2c(Nc3ccc(Cl)c(Cl)c3)ncnc2cc1OCCC1CCCCC1 [US9796704, Entry 185]
37 | in the range around 525 nM |  | COc1cc2c(Nc3ccc(Cl)c(Cl)c3)ncnc2cc1OCC1CCCCC1 [US9796704, Entry 186]
38 | in the range around 525 nM |  | COc1cc2c(Nc3ccc(Cl)c(Cl)c3)ncnc2cc1OCC1CCC1 [US9796704, Entry 187]

Row | IC50 [1] | IC50 [2] | SMILES
39 | in the range around 525 nM |  | COc1cc2c(Nc3ccc(Cl)c(Cl)c3)ncnc2cc1OCCC1OCCO1 [US9796704, Entry 188]
40 | in the range around 525 nM |  | COc1cc2c(Nc3ccc(Cl)c(Cl)c3)ncnc2cc1OCCC1OCCCO1 [US9796704, Entry 189]
41 | in the range around 525 nM |  | COc1cc2c(Nc3ccc(Cl)c(Cl)c3)ncnc2cc1OCCN1CCOCC1 [US9796704, Entry 190]
42 | in the range around 525 nM |  | COc1cc2c(Nc3ccc(Cl)c(Cl)c3)ncnc2cc1OCCN1CCCC1 [US9796704, Entry 191]
43 | in the range around 525 nM |  | COc1cc2c(Nc3ccc(Cl)c(Cl)c3)ncnc2cc1OCCN1CCCCC1 [US9796704, Entry 192]
44 | in the range around 525 nM |  | COc1cc2c(Nc3ccc(Cl)c(Cl)c3)ncnc2cc1OCC(=O)N1CCOCC1 [US9796704, Entry 195]
45 | in the range around 525 nM |  | COc1cc2c(Nc3ccc(Cl)c(Cl)c3)ncnc2cc1OCc1nc(-c2ccc(O)c(C(N)=O)c2)cs1 [US9796704, Entry 200]
46 | in the range around 525 nM |  | COc1cc2c(Nc3ccc(Cl)c(Cl)c3)ncnc2cc1OCc1nc(-c2cccnc2)cs1 [US9796704, Entry 201]
47 | in the range around 525 nM |  | COc1cc2c(Nc3ccc(Cl)c(Cl)c3)ncnc2cc1OCc1nc(-c2ccccn2)cs1 [US9796704, Entry 202]
48 | in the range around 525 nM |  | COc1cc2c(Nc3ccc(Cl)c(Cl)c3)ncnc2cc1OCc1nc(N2CCOCC2)no1 [US9796704, Entry 205]
49 | in the range around 525 nM |  | COc1cc2c(Nc3ccc(Cl)c(Cl)c3)ncnc2cc1OCc1nc(N(C)C)no1 [US9796704, Entry 206]
50 | in the range around 525 nM |  | COc1cc2c(Nc3ccc(Cl)c(Cl)c3)ncnc2cc1OCc1nc(CN2CCN(C)CC2)cs1 [US9796704, Entry 207]
51 | in the range around 525 nM |  | COc1cc2c(Nc3ccc(Cl)c(Cl)c3)ncnc2cc1OCc1nc2c(s1)CNCC2 [US9796704, Entry 208]
52 | in the range around 525 nM |  | COc1cc2c(Nc3ccc(Cl)c(Cl)c3)ncnc2cc1OCc1nc(CN2CCOCC2)cs1 [US9796704, Entry 209]
53 | in the range around 10500 nM |  | CCN1CCOC(COc2cc3ncnc(Nc4ccc(Cl)c(Cl)c4)c3cc2OC)C1 (configuration not stated) [US9796704, Entry 212]
54 | in the range around 525 nM |  | COc1cc2c(Nc3ccc(Cl)c(Cl)c3)ncnc2cc1OCc1csc(C2CCNCC2)n1 [US9796704, Entry 213]
55 | in the range around 525 nM |  | COc1cc2c(Nc3ccc(Cl)c(Cl)c3)ncnc2cc1OCc1csc(C2CCN(C)CC2)n1 [US9796704, Entry 214]
56 | in the range around 525 nM |  | COc1cc2c(Nc3ccc(Cl)c(Cl)c3)ncnc2cc1OCc1nc(N2CCN(C(=O)OC(C)(C)C)CC2)no1 [US9796704, Entry 215]
57 | in the range around 525 nM |  | CCN1CCCCC1c1nc(COc2cc3ncnc(Nc4ccc(Cl)c(Cl)c4)c3cc2OC)no1 (configuration not stated) [US9796704, Entry 219]

Row | SMILES | IC50 [1] | IC50 [2]
58 | COc1cc2c(Nc3ccc(Cl)c(Cl)c3)ncnc2cc1OC[C@H]1CN2CCC[C@@H]2CO1 [US9796704, Entry 31] |  | < 50 nM
